ChEMBL document CHEMBL4196033, “Potent hydrazone derivatives targeting esophageal cancer cells” (Eur J Med Chem, 2018)
Active and inactive are the calls of the source. The calls are words filed in the database; no cut-off is given here.

Tests used:
EC9706 [1] = test: Antiproliferative activity against human EC9706 cells after 72 hrs by MTT assay; type: functional, cell-based; conditions: EC9706, 72 h
SMMC-7721 = test: Antiproliferative activity against human SMMC7721 cells after 72 hrs by MTT assay; type: functional, cell-based; conditions: SMMC-7721, 72 h
MCF7 = test: Antiproliferative activity against human MCF7 cells after 72 hrs by MTT assay; type: functional, cell-based; conditions: MCF7, 72 h
EC9706 [2] = test: Antiproliferative activity against human EC9706 cells after 24 hrs by MTT assay; type: functional, cell-based; conditions: EC9706, 24 h
EC9706 [3] = test: Cell cycle arrest in human EC9706 cells assessed as increase in G0/G1 phase population at 8 uM after 24 hrs by propidium iodide staining based flow cytometry relative to control; type: functional
EC9706 [4] = test: Cell cycle arrest in human EC9706 cells assessed as decrease in G2/M phase population at 2 uM after 24 hrs by propidium iodide staining based flow cytometry relative to control; type: functional
EC9706 [5] = test: Cell cycle arrest in human EC9706 cells assessed as decrease in G2/M phase population at 8 uM after 24 hrs by propidium iodide staining based flow cytometry relative to control; type: functional
EC9706 [6] = test: Cell cycle arrest in human EC9706 cells assessed as increase in S phase population at 2 uM after 24 hrs by propidium iodide staining based flow cytometry relative to control; type: functional
EC9706 [7] = test: Upregulation of p27 protein expression in human EC9706 cells at 4 uM after 24 to 48 hrs by Western blot analysis relative to control; type: functional
EC9706 [8] = test: Upregulation of p27 protein expression in human EC9706 cells at 8 uM after 24 to 48 hrs by Western blot analysis relative to control; type: functional
ECa-109 cell line [9] = test: Upregulation of p27 protein expression in human EC109 cells at 2 uM after 24 to 48 hrs by Western blot analysis relative to control; type: functional
EC9706 [10] = test: Induction of morphological changes in human EC9706 cells assessed as chromatin condensation after 48 hrs by Hoechst 33342 staining based fluorescence microscopic method; type: functional, cell-based
ECa-109 cell line [11] = test: Induction of morphological changes in human EC109 cells assessed as cell rounding after 48 hrs by Hoechst 33342 staining based fluorescence microscopic method; type: functional
ECa-109 cell line [12] = test: Induction of morphological changes in human EC109 cells assessed as chromatin condensation after 48 hrs by Hoechst 33342 staining based fluorescence microscopic method; type: functional, cell-based
EC9706 [13] = test: Induction of apoptosis in human EC9706 cells assessed as live cells at 2 uM after 48 hrs by Annexin V-FITC/propidium iodide staining based flow cytometry (reference value: 85.5 to 96%); type: functional
EC9706 [14] = test: Induction of apoptosis in human EC9706 cells assessed as early apoptotic cells at 8 uM after 48 hrs by Annexin V-FITC/propidium iodide staining based flow cytometry (reference value: 0.68 to 1.58%); type: functional
ECa-109 cell line [15] = test: Induction of apoptosis in human EC109 cells assessed as late apoptotic cells at 2 uM after 48 hrs by Annexin V-FITC/propidium iodide staining based flow cytometry (reference value: 0.2 to 1.74%); type: functional
ECa-109 cell line [16] = test: Induction of apoptosis in human EC109 cells assessed as necrotic cells at 4 uM after 48 hrs by Annexin V-FITC/propidium iodide staining based flow cytometry (reference value: 0.74 to 1.18%); type: functional
EC9706 [17] = test: Induction of apoptosis in human EC9706 cells assessed as live cells at 4 uM after 48 hrs in presence of caspase inhibitor Z-VAD-FMK by Annexin V-FITC/propidium iodide staining based flow cytometry (reference value: 95.7%); type: functional
EC9706 [18] = test: Induction of apoptosis in human EC9706 cells assessed as necrotic cells at 4 uM after 48 hrs in presence of caspase inhibitor Z-VAD-FMK by Annexin V-FITC/propidium iodide staining based flow cytometry (reference value: 1.2%); type: functional
ECa-109 cell line [19] = test: Induction of apoptosis in human EC109 cells assessed as live cells at 8 uM after 48 hrs in presence of caspase inhibitor Z-VAD-FMK by Annexin V-FITC/propidium iodide staining based flow cytometry (reference value: 96.2%); type: functional
ECa-109 cell line [20] = test: Induction of apoptosis in human EC109 cells assessed as necrotic cells at 8 uM after 48 hrs in presence of caspase inhibitor Z-VAD-FMK by Annexin V-FITC/propidium iodide staining based flow cytometry (reference value: 2.37%); type: functional
EC9706 [21] = test: Induction of ROS generation in human EC9706 cells at 2 uM after 24 hrs by DCFH-DA staining based flow cytometry relative to control; type: functional
EC9706 [22] = test: Induction of ROS generation in human EC9706 cells at 4 uM after 24 hrs by DCFH-DA staining based flow cytometry relative to control; type: functional
EC9706 [23] = test: Induction of ROS generation in human EC9706 cells at 8 uM after 24 hrs by DCFH-DA staining based flow cytometry relative to control; type: functional
ECa-109 cell line [24] = test: Induction of ROS generation in human EC109 cells at 8 uM after 24 hrs by DCFH-DA staining based flow cytometry relative to control; type: functional
EC9706 [25] = test: Induction of ROS generation in human EC9706 cells at 2 to 4 uM after 24 hrs in presence of anti-oxidant NAC by DCFH-DA staining based flow cytometry; type: functional, cell-based
ECa-109 cell line [26] = test: Induction of ROS generation in human EC109 cells at 2 to 4 uM after 24 hrs in presence of anti-oxidant NAC by DCFH-DA staining based flow cytometry; type: functional, cell-based
EC9706 [27] = test: Induction of apoptosis in human EC9706 cells assessed as increase in cleaved caspase-3 protein expression after 48 hrs by Western blot analysis; type: functional, cell-based
EC9706 [28] = test: Induction of apoptosis in human EC9706 cells assessed as increase in cleaved PARP protein expression after 48 hrs by Western blot analysis; type: functional, cell-based
ECa-109 cell line [29] = test: Induction of apoptosis in human EC109 cells assessed as decrease in Bcl2 protein expression after 48 hrs by Western blot analysis; type: functional, cell-based
EC9706 [30] = test: Effect on Prxs-3 protein expression in human EC9706 cells at 2 to 8 uM after 48 hrs by Western blot analysis; type: functional, cell-based
EC9706 [31] = test: Effect on Prxs-4 protein expression in human EC9706 cells at 2 to 8 uM after 48 hrs by Western blot analysis; type: functional, cell-based
ECa-109 cell line [32] = test: Effect on Prxs-1 protein expression in human EC109 cells at 2 to 8 uM after 48 hrs by Western blot analysis; type: functional, cell-based
ECa-109 cell line [33] = test: Effect on Prxs-5 protein expression in human EC109 cells at 2 to 8 uM after 48 hrs by Western blot analysis; type: functional, cell-based
Mus musculus [34] = test: Acute toxicity in C57BL/6 mouse assessed as mortality at 2 g/kg, ig measured for 2 weeks; type: organism-based; conditions: in vivo, po, 2000 mg/kg, 336 h
Mus musculus [35] = test: Acute toxicity in C57BL/6 mouse assessed as change in body weight at 2 g/kg, ig measured for 2 weeks; type: organism-based; conditions: in vivo, po, 2000 mg/kg, 336 h
Mus musculus [36] = test: Acute toxicity in C57BL/6 mouse assessed as histopathological changes in liver at 2 g/kg, ig measured for 2 weeks by hematoxylin and eosin staining based microscopic method; type: organism-based; conditions: in vivo, po, 2000 mg/kg, 336 h
Mus musculus [37] = test: Acute toxicity in C57BL/6 mouse assessed as histopathological changes in kidney at 2 g/kg, ig measured for 2 weeks by hematoxylin and eosin staining based microscopic method; type: organism-based; conditions: in vivo, po, 2000 mg/kg, 336 h

Structure (SMILES): COc1ccc(/C=N/NC(=O)c2cccc(S(=O)(=O)N3CCOCC3)c2)c(O)c1
- IC50 (EC9706 [1]): 1.09 µM
- IC50 (SMMC-7721): 3.95 µM
- IC50 (MCF7): 5.14 µM
- IC50 (EC9706 [2]): > 20 µM
- fold change (FC) (EC9706 [3]): 1.27
- fold change (FC) (EC9706 [4]): 0.28
- fold change (FC) (EC9706 [5]): 0.26
- fold change (FC) (EC9706 [6]): 1.54
- fold change (FC) (EC9706 [7]): 1.4
- fold change (FC) (EC9706 [8]): 1.7
- fold change (FC) (ECa-109 cell line [9]): 1.2
- Activity (EC9706 [10]): Dose-dependent effect
- Activity (ECa-109 cell line [11]): Dose-dependent effect
- Activity (ECa-109 cell line [12]): Dose-dependent effect
- Activity (EC9706 [13]): 82.8%
- Activity (EC9706 [14]): 8.64 - 26%
- Activity (ECa-109 cell line [15]): 6.84%
- Activity (ECa-109 cell line [16]): 4.45 - 11.3%
- Activity (EC9706 [17]): 42.1%
- Activity (EC9706 [18]): 15.2%
- Activity (ECa-109 cell line [19]): 26.9%
- Activity (ECa-109 cell line [20]): 17.6%
- fold change (FC) (EC9706 [21]): 1.16
- fold change (FC) (EC9706 [22]): 1.45
- fold change (FC) (EC9706 [23]): 1.95
- fold change (FC) (ECa-109 cell line [24]): 2.21
- Activity (EC9706 [25]): inactive
- Activity (ECa-109 cell line [26]): inactive
- Activity (EC9706 [27]): Dose-dependent effect
- Activity (EC9706 [28]): Dose-dependent effect
- Activity (ECa-109 cell line [29]): Dose-dependent effect
- Activity (EC9706 [30]): Active
- Activity (EC9706 [31]): Active
- Activity (ECa-109 cell line [32]): Active
- Activity (ECa-109 cell line [33]): Active
- Activity (Mus musculus [34]): Non-Toxic
- Activity (Mus musculus [35]): Non-Toxic
- Activity (Mus musculus [36]): Non-Toxic
- Activity (Mus musculus [37]): Non-Toxic
